Source: ChEMBL document CHEMBL1201862, “PubChem BioAssay data set” (2004)
Activity calls are given as the source filed them.

Assays:
Type in all cases: functional
[1] = target: T1, Sentrin-specific protease 7 (Homo sapiens, UniProt Q9BQF6);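 further: Luminescence-based dose-response confirmation of ultra-high-throughput screening hits, measuring inhibition of SENP7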
T1 sequence (Q9BQF6 whole entry): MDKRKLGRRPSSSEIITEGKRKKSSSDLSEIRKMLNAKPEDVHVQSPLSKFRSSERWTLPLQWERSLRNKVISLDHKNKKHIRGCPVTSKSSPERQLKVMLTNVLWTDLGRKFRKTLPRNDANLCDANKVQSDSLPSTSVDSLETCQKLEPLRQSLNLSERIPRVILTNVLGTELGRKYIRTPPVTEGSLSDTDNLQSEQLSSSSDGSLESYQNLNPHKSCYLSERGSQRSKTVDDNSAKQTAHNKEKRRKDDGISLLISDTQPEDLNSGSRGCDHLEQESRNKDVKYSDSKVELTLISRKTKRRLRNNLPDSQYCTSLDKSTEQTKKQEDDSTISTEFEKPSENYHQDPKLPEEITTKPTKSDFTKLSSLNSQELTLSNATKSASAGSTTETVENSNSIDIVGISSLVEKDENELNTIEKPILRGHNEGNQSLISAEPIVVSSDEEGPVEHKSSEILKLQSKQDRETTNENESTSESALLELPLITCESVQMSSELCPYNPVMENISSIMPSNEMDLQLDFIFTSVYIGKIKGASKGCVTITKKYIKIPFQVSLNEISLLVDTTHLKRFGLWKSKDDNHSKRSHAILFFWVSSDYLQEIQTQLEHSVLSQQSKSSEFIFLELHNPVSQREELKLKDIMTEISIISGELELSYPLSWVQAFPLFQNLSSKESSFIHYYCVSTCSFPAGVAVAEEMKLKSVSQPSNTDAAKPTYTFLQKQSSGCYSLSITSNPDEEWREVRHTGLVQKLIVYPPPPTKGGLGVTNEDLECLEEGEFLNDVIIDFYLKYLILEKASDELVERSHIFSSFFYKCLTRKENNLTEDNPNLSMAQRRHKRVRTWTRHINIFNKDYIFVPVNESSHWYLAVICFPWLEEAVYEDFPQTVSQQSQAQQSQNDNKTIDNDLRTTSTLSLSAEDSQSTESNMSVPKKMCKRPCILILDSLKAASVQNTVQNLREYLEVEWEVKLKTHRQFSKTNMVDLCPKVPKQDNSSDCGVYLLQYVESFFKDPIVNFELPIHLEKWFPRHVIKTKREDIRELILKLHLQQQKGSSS

[2] = target: T2, Protein RecA (Mycobacterium tuberculosis, UniProt P9WHJ3); assay: Fluorescence Cell-Free Homogeneous Dose Retest to Identify Inhibitors of RecA-Intein Splicing Activity. [Related pubchem assays (depositor defined):AID2097, AID2223, AID489010, AID492950]
T2 sequence (P9WHJ3 whole entry): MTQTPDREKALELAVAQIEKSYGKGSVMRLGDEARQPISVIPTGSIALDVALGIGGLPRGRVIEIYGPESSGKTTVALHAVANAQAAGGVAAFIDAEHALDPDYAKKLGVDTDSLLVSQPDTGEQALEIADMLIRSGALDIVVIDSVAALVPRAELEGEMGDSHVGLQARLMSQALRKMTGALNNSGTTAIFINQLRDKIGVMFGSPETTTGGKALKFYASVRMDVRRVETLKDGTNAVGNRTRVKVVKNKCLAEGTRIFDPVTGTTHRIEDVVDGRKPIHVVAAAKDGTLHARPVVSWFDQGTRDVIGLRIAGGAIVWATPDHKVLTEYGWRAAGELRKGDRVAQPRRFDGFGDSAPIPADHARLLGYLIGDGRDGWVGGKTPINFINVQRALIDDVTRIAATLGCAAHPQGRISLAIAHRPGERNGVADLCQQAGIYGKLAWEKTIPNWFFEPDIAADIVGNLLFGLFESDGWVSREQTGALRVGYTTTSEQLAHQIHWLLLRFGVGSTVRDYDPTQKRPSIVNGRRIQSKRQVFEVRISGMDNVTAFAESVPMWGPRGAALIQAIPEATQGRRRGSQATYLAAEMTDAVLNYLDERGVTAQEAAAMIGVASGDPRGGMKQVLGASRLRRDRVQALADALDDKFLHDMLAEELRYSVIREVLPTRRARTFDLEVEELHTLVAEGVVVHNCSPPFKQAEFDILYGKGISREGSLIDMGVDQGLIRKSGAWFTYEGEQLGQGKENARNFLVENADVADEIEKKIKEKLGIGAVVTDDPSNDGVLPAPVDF

[3] = target: Serine/threonine-protein kinase TBK1 (Homo sapiens, UniProt Q9UHD2); assay: Navigating the Kinome. Panel member name: TBK1
[4] = target: Tyrosine-protein kinase Lck (Homo sapiens, UniProt P06239);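 further: lck was assayed as one member of a kinase panel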
[5] = target: Serine/threonine-protein kinase PAK 4 (Homo sapiens, UniProt O96013);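 further: value obtained within a kinome profiling panel in which PAK4 was one of the panel members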
[6] = target: Fibroblast growth factor receptor 1 (Homo sapiens, UniProt P11362)
[7] = target: Glycogen synthase kinase-3 beta (Homo sapiens, UniProt P49841);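 further: value comes from a broad kinome profiling panel, with GSK3B as the panel member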
[8] = target: Cyclin-dependent kinase 9 (Homo sapiens, UniProt P50750);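 further: value from the CDK9 entry of a kinome-spanning kinase panel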
[9] = target: Mitogen-activated protein kinase 14 (Homo sapiens, UniProt Q16539);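 further: part of a kinome-wide panel, MAPK14 entry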
[10] = target: Protein kinase C theta type (Homo sapiens, UniProt Q04759); assay: Navigating the Kinome. Panel member name: PRKCQ
[11] = target: cAMP-dependent protein kinase catalytic subunit alpha (Homo sapiens, UniProt P17612)
[12] = target: Serine/threonine-protein kinase 17A (Homo sapiens, UniProt Q9UEE5)
[13] = target: Serine/threonine-protein kinase pim-2 (Homo sapiens, UniProt Q9P1W9);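 further: value comes from a broad kinase panel profiling study in which PIM2 was one of the panel members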
[14] = target: 3-phosphoinositide-dependent protein kinase 1 (Homo sapiens, UniProt O15530);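 further: value comes from the Navigating the Kinome panel, PDPK1 member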

Chain of Serine/threonine-protein kinase PAK 4 (O96013 whole entry): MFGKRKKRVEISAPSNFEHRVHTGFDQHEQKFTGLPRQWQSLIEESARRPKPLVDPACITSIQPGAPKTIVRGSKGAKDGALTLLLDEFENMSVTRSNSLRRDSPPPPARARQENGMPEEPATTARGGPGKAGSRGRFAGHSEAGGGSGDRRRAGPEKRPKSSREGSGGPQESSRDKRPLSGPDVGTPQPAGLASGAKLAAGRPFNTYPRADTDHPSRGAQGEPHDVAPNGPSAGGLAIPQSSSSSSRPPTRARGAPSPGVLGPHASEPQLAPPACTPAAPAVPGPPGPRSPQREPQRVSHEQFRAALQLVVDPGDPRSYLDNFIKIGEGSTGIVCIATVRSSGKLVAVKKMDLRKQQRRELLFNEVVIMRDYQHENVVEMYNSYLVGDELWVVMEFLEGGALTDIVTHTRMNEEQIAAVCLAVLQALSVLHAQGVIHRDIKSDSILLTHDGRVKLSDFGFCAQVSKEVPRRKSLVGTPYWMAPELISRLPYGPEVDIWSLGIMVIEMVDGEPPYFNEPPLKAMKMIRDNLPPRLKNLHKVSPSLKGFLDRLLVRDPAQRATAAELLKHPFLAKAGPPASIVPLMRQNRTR
Chain of Tyrosine-protein kinase Lck (P06239 whole entry): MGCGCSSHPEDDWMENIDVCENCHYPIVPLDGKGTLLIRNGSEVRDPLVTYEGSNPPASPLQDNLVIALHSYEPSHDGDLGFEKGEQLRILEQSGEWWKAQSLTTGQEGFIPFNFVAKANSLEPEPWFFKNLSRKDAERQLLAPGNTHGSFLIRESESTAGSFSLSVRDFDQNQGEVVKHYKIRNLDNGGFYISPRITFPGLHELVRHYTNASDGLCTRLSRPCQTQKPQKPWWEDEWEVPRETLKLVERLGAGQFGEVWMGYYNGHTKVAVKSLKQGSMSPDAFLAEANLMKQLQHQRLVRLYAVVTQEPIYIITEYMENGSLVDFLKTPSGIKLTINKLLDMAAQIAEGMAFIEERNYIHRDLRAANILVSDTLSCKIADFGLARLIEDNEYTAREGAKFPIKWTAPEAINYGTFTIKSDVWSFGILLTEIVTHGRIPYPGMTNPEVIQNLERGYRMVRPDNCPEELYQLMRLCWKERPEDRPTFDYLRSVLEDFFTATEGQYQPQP
Chain of Glycogen synthase kinase-3 beta (P49841 whole entry): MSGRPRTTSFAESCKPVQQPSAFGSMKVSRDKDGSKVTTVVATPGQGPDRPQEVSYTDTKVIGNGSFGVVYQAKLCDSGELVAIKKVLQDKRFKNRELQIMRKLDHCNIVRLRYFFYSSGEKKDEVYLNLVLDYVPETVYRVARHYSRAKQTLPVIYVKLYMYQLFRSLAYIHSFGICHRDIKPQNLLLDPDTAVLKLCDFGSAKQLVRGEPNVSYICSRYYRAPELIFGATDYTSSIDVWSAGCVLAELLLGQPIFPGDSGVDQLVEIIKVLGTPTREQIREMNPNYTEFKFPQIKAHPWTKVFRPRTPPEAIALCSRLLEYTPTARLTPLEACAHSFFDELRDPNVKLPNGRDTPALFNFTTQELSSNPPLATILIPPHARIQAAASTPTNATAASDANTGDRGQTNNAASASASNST
Chain of Fibroblast growth factor receptor 1 (P11362 whole entry): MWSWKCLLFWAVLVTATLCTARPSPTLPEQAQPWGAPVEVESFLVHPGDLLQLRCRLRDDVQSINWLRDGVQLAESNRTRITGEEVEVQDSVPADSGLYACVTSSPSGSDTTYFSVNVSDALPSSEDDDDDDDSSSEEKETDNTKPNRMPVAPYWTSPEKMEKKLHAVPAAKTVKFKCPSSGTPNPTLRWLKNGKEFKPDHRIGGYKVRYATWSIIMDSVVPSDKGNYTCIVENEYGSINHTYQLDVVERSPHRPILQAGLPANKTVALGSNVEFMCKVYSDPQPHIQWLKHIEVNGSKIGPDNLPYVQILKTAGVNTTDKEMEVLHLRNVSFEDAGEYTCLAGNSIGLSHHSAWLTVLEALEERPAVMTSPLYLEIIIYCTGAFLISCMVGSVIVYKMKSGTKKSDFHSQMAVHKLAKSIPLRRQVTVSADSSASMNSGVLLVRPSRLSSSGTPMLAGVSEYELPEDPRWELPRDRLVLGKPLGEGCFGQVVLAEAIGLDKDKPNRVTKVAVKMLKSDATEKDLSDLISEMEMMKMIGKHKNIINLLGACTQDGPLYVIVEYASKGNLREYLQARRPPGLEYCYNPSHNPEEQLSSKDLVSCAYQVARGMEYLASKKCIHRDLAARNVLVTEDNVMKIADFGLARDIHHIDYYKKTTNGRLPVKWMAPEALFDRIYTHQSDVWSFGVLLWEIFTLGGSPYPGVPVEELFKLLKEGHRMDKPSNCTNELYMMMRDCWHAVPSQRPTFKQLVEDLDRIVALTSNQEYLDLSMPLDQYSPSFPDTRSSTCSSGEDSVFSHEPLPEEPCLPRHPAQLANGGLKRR
Chain of Protein kinase C theta type (Q04759 whole entry): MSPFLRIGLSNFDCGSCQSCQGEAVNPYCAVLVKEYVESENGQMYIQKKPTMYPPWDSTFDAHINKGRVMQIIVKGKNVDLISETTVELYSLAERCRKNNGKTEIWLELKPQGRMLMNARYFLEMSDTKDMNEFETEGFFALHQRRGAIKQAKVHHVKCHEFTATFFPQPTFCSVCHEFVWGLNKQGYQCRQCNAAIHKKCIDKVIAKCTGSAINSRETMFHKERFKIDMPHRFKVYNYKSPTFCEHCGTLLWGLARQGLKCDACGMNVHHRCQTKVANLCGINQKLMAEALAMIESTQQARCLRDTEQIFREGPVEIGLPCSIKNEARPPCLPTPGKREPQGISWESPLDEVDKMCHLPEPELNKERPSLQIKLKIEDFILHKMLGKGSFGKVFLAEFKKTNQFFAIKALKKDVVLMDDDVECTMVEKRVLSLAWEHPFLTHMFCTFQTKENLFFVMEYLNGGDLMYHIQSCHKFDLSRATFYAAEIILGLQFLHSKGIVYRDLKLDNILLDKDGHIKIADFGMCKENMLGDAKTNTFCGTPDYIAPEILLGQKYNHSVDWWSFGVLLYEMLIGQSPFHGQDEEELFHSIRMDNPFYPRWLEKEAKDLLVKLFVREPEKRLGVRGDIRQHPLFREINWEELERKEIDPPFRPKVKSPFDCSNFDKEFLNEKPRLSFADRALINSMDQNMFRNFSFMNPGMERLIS
Chain of Cyclin-dependent kinase 9 (P50750 whole entry): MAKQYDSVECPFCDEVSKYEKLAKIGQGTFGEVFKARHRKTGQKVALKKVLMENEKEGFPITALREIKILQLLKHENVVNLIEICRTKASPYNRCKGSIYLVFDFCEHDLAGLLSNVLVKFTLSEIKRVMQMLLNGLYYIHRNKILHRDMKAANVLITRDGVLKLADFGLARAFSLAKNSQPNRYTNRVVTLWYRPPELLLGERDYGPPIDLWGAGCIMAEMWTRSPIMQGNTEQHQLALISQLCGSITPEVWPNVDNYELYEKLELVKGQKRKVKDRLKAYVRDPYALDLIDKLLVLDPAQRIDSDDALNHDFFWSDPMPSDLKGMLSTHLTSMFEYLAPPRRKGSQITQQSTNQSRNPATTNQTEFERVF
Chain of Serine/threonine-protein kinase TBK1 (Q9UHD2 whole entry): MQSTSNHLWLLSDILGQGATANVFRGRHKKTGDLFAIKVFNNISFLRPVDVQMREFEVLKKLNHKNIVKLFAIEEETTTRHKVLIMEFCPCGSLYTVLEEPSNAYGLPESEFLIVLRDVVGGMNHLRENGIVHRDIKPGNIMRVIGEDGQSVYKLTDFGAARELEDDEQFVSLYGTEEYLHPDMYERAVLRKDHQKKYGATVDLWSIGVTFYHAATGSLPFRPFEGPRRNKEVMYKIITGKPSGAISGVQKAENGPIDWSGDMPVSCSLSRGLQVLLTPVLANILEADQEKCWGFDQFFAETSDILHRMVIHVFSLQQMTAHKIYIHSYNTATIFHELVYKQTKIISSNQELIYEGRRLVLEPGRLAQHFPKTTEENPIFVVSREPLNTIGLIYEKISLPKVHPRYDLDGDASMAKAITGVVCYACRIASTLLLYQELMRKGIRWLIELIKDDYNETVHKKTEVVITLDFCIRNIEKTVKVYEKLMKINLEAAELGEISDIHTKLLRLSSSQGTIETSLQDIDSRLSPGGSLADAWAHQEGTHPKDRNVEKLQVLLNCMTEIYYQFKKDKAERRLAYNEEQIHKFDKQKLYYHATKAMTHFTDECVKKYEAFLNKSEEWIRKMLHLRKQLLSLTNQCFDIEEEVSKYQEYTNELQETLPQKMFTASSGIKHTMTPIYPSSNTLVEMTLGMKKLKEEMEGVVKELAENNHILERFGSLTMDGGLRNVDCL
Chain of Mitogen-activated protein kinase 14 (Q16539 whole entry): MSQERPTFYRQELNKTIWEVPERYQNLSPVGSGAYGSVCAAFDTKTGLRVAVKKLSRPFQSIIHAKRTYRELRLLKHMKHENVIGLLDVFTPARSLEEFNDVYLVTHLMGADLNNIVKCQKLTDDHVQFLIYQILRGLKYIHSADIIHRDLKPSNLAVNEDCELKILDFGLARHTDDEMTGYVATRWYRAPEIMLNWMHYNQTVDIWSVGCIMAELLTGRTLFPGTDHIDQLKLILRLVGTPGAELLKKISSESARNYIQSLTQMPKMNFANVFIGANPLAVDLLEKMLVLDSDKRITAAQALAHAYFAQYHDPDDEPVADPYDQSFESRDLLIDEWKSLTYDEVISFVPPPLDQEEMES
Chain of Serine/threonine-protein kinase pim-2 (Q9P1W9 whole entry): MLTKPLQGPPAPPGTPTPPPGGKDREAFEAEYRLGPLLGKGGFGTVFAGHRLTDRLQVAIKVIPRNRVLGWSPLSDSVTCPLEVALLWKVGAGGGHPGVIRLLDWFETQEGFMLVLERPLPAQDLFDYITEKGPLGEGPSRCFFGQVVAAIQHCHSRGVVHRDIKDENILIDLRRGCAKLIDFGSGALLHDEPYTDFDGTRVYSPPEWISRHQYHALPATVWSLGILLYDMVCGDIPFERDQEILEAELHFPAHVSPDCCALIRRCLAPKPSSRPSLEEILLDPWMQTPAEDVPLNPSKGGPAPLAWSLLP

Row | SMILES | IC50 [1] | Ki [3] | Ki [4] | Ki [5] | Ki [6] | Ki [7] | Ki [8] | Ki [9] | Ki [10] | Ki [11] | also measured
1 | Cc1ccc(NC2=C(NCCO)C(=O)c3ccccc3C2=O)cc1 | 11.6 µM (active) |  |  |  |  |  |  |  |  |  | EC50 [2]: 11.7 µM (active)
2 | CC(/C=C1\SC(=S)N(NS(=O)(=O)c2ccc(C)cc2)C1=O)=C\c1ccccc1 | 43.9 µM (active) |  |  |  |  |  |  |  |  |  | 
3 | Cc1ccc(C)c(NC(=O)c2cc(-c3ccco3)nc3ccccc23)c1 |  | > 3.16 µM (inactive) | > 6.31 µM (inactive) | 3.98 µM (active) | 1.58 µM (active) | 1.58 µM (active) | 0.398 µM (active) | > 3.98 µM (inactive) |  |  | 
4 | COc1ccc(C2=NNc3cccc4c(OC)ccc2c34)cc1OC |  | 0.631 µM (active) | > 6.31 µM (inactive) | 2 µM (active) | > 3.98 µM (inactive) | > 3.98 µM (inactive) | 0.2 µM (active) |  | 1.58 µM (active) | > 1.26 µM (inactive) | 
5 | CN1CCC(c2c(O)cc(O)c3c(=O)cc(-c4ccccc4Cl)oc23)C(O)C1 (centres undefined) |  |  |  |  |  |  |  | 3.98 µM (active) | 0.0794 µM (active) | > 3.98 µM (inactive) | Ki [12]: > 3.98 µM (inactive); Ki [13]: 1 µM (active); Ki [14]: > 3.98 µM (inactive)
